For 19 molecules, IC50 results are on record in US9913843B2, “Protein kinase C inhibitors and uses thereof” (Rigel Pharmaceuticals, Inc., priority 2012, dated 2018).

Like-named read-outs stand apart in the source and are kept apart here.

A word on the IC50: it is the concentration that inhibits the measured activity by half.

This test has as its system PKC mediated IL-2 production in human primary T cells. Briefly: IL-2 ELISA, human primary T cell, anti CD3+CD28+ (whole cell functional assay for PKC mediated IL-2 production). The class given is cell-based. On the procedure:
Human primary T cells were prepared as follows. Fresh PBMC's from All Cells (Cat # PB002) were re-suspended in RPMI (RPMI-1640 with L-Glutamine; Mediatech, Inc., Herndon Va., cat. #10-040-CM) with 10% FBS and seeded into flasks and incubated at 37° C. for 2 hours to allow the monocytes to adhere. The non-adherent cells were then centrifuged and re-suspended in RPMI medium containing 40 U/ml IL2 and seeded into a flask pre-coated with 1 μg/ml aCD3 and 5 ug/ml aCD28 (Anti-Human CD3, BD Pharmingen Catalog #555336, Anti-Human CD28, Beckman Coulter Catalog #IM1376). The cells were stimulated for 3-4 days, then transferred to a fresh flask and maintained in RPMI (RPMI-1640 with L-Glutamine; Mediatech, Inc., Herndon Va., cat. #10-040-CM) with 10% FBS and 40 U/ml IL-2.
Human primary T cells (100,000 cells per well) were pre-incubated with or without test compound in RPMI-1640 with L-Glutamine and 10% FBS for 1 hour at 37° C. Cells were then stimulated by transferring them to round-bottom 96-well plates pre-coated with 1 μg/ml aCD3 and 5 μg/ml aCD28. For counter assay, cells were instead stimulated by adding 8× stock solutions of PMA and ionomycin in RPMI-1640 with L-Glutamine and 10% FBS (for final concentrations of 0.5 ng/ml PMA and 0.1 μM ionomycin, both from Calbiochem). Cells were incubated at 37° C. for 24 hours before 100 μL supernatants were harvested for quantification of IL-2 by ELISA using Human IL-2 Duoset ELISA Kit from R and D Systems, Cat. # DY202E.
Compounds 1-156 were tested in a whole cell functional assay for PKC mediated IL-2 production as follows. Human primary T cell isolation and culture: Human primary T cells were prepared as follows. Whole blood was obtained from a healthy volunteer, mixed 1:1 with PBS, layered on to Ficoll Hypaque (Amersham Pharmacia Biotech, Piscataway, N.J., Catalog #17-1440-03) in 2:1 blood/PBS:ficoll ratio and centrifuged for 30 minutes at 4° C. at 1750 rpm. The cells at the serum: ficoll interface were recovered and washed twice with 5 volumes of PBS. These freshly isolated human peripheral blood mononuclear cells were cultured in Yssel's medium containing 40 U/ml IL2 in a flask pre-coated with 1 μg/ml aCD3 and 5 μg/ml aCD28 (Anti-Human CD3, BD Pharmingen Catalog #555336, Anti-Human CD28, Beckman Coulter Catalog #IM1376). The cells were stimulated for 3-4 days, then transferred to a fresh flask and maintained in RPMI (RPMI-1640 with L-Glutamine; Mediatech, Inc., Herndon Va., cat. #10-040-CM) with 10% FBS and 40 U/ml IL-2. The primary T-cells were then washed twice with PBS to remove the IL-2.
Primary T cell stimulation and IL2 ELISA: Human primary T cells (100,000 cells per well) were pre-incubated with or without test compound in Yssel's medium for 1 hour at 37° C. Cells were then stimulated by transferring them to round-bottom 96-well plates pre-coated with 1 μg/ml aCD3 and 5 μg/ml αCD28. For counter assay, cells were instead stimulated by adding 8× stock solutions of PMA and ionomycin in Yssels (for final concentrations of 0.5 ng/ml PMA and 0.1 uM ionomycin, both from Calbiochem). Cells were incubated at 37° C. for 24 hours before 100 μL supernatants were harvested for quantification of IL-2 by ELISA using Human IL-2 Duoset ELISA Kit from R and D Systems, Cat. # DY202E.
On the technique in general: ELISA stands for enzyme-linked immunosorbent assay.

[1] abbreviates: 24 h, human primary T cells stimulated with anti-CD3 + anti-CD28, IL-2 by ELISA, read-out: IC50 for blocking IL-2 production.
Where [2] appears, read: human primary T cells stimulated with anti-CD3 + anti-CD28, 24 h, IL-2 by ELISA, 8 pt, read-out: IL2 ELISA, Human primary T cell, anti-CD3 + CD28, 8 pt (IC50).

On to `Cc1nnnn1-c1ccc(F)c(Nc2nccc(NC[C@@H]3CCCN4CCCC[C@H]34)n2)c1` [Compound 50, N2-(2-fluoro-5-(5-methyl-1H-tetrazol-1-yl)phenyl)-N4-(((1S,9aR)-octahydro-1H-quinolizin-1-yl)methyl)pyrimidine-2,4-diamine], for which the IC50 under setting [1] is less than 30 µM and the IC50 under setting [2] came out at 2 µM.
Turning to `Cc1nnnn1-c1cc(Nc2ncc(N(C)C)c(NC[C@@H]3CCCN4CCCC[C@H]34)n2)ccc1F` [Compound 88, N2-(4-fluoro-3-(5-methyl-1H-tetrazol-1-yl)phenyl)-N4-(((1S,9aR)-octahydro-1H-quinolizin-1-yl)methyl)-N5,N5-dimethylpyrimidine-2,4,5-triamine], the IC50 under setting [1] was less than 30 µM and the IC50 under setting [2] was determined as 12.7 µM.
Regarding `Cc1cnc(Nc2cc(-n3cnnn3)c(C3CC3)cc2F)nc1NC[C@@H]1CCCN2CCCC[C@H]12` [Compound 59, N2-(4-cyclopropyl-2-fluoro-5-(1H-tetrazol-1-yl)phenyl)-N4-(((1S,9aR)-octahydro-1H-quinolizin-1-yl)methyl)-5-methylpyrimidine-2,4-diamine], the 50% inhibitory concentration (IC50) is, setting by setting: under setting [1], less than 30 µM; under setting [2], 0.16 µM.
On to `Cn1nnn(-c2cc(Nc3ncc(F)c(NC[C@@H]4CCCN5CCCC[C@H]45)n3)ccc2OC2COC2)c1=O` [Compound 14, 1-(5-(4-(((1S,9aR)-octahydro-1H-quinolizin-1-yl)methylamino)-5-fluoropyrimidin-2-ylamino)-2-(oxetan-3-yloxy)phenyl)-4-methyl-1H-tetrazol-5(4H)-one], for which the half-inhibitory concentration (IC50) by setting is: under setting [1], less than 30 µM; under setting [2], 0.201 µM.
As to `CN(C)c1cnc(Nc2cc(C#N)c(C3CC3)cc2F)nc1NC[C@@H]1CCCN2CCCC[C@H]12` [Compound 95, 5-(4-(((1S,9aR)-octahydro-1H-quinolizin-1-yl)methylamino)-5-(dimethylamino)pyrimidin-2-ylamino)-2-cyclopropyl-4-fluorobenzonitrile], the IC50 is less than 30 µM under setting [1] and 1.74 µM under setting [2].
Regarding `O=c1[nH]c2cc(Nc3ncc(C(F)(F)F)c(NC[C@@H]4CCCN5CCCC[C@H]45)n3)ccc2o1` [Compound 112, 5-(4-(((1S,9aR)-octahydro-1H-quinolizin-1-yl)methylamino)-5-(trifluoromethyl)pyrimidin-2-ylamino)benzo[d]oxazol-2(3H)-one], the IC50 runs as follows: under setting [1], less than 30 µM; under setting [2], 21.7 µM.
The matching figures for `Fc1cnc(Nc2ccc3c(c2)OC(F)(F)C(F)(F)O3)nc1NC[C@@H]1CCCN2CCCC[C@H]12` [Compound 20, 5-fluoro-N2-(2,2,3,3-tetrafluoro-2,3-dihydrobenzo[b][1,4]dioxin-7-yl)-N4-(((1S,9aR)-octahydro-1H-quinolizin-1-yl)methyl)pyrimidine-2,4-diamine]: less than 30 µM and 1.07 µM.
The matching figures for `Cc1ccc(Nc2ncc(F)c(NC[C@@H]3CCCN4CCCC[C@H]34)n2)cc1-n1cnnn1` [Compound 4, 5-fluoro-N4-(((1S,9aR)-octahydro-1H-quinolizin-1-yl)methyl)-N2-(4-methyl-3-(1H-tetrazol-1-yl)phenyl)pyrimidine-2,4-diamine]: less than 30 µM and 0.142 µM.
As to `Cc1nnnn1-c1cc(Nc2ncc(F)c(NC[C@@H]3CCCN4CCCC[C@H]34)n2)c(F)cc1C1CC1` [Compound 23, N2-(4-cyclopropyl-2-fluoro-5-(5-methyl-1H-tetrazol-1-yl)phenyl)-5-fluoro-N4-(((1S,9aR)-octahydro-1H-quinolizin-1-yl)methyl)pyrimidine-2,4-diamine], the IC50 by setting is: under setting [1], less than 30 µM; under setting [2], 0.0663 µM.
For `CC(O)COc1ccc(Nc2ncc(F)c(NC[C@@H]3CCCN4CCCC[C@H]34)n2)cc1C#N` (stereo partly drawn) [Compound 145, 5-((5-fluoro-4-((((1S,9aR)-octahydro-2H-quinolizin-1-yl)methyl)amino)pyrimidin-2-yl)amino)-2-(2-hydroxypropoxy)benzonitrile], the IC50 was less than 30 µM under setting [1] and 4.63 µM under setting [2].
For `COc1cnc(Nc2ccc(F)c(-n3nnnc3C)c2)nc1NC[C@@H]1CCCN2CCCC[C@H]12` [Compound 75, N2-(4-fluoro-3-(5-methyl-1H-tetrazol-1-yl)phenyl)-N4-(((1S,9aR)-octahydro-1H-quinolizin-1-yl)methyl)-5-methoxypyrimidine-2,4-diamine] the same measures were less than 30 µM and 2.91 µM.
For `Cn1nnn(-c2cc(Nc3ncc(C#N)c(NC[C@@H]4CCCN5CCCC[C@H]45)n3)c(F)cc2O)c1=O` [Compound 128, 2-((2-fluoro-4-hydroxy-5-(4-methyl-5-oxo-4,5-dihydro-1H-tetrazol-1-yl)phenyl)amino)-4-((((1S,9aR)-octahydro-2H-quinolizin-1-yl)methyl)amino)pyrimidine-5-carbonitrile] the same measures were less than 30 µM and 1.94 µM.
On to `N#Cc1cccc(Nc2ncc(F)c(NC[C@@H]3CCCN4CCCC[C@H]34)n2)c1` [Compound 10, 3-(4-(((1S,9aR)-octahydro-1H-quinolizin-1-yl)methylamino)-5-fluoropyrimidin-2-ylamino)benzonitrile], for which the IC50 is less than 30 µM under setting [1] and 0.594 µM under setting [2].
The matching figures for `COc1cnc(Nc2cc(-n3cnnn3)c(C3CC3)cc2F)nc1NC[C@@H]1CCCN2CCCC[C@H]12` [Compound 72, N2-(4-cyclopropyl-2-fluoro-5-(1H-tetrazol-1-yl)phenyl)-N4-(((1S,9aR)-octahydro-1H-quinolizin-1-yl)methyl)-5-methoxypyrimidine-2,4-diamine]: less than 30 µM and 1.27 µM.
The matching figures for `N#Cc1cnc(Nc2cc(-n3cnnn3)c(C3CC3)cc2F)nc1NC[C@@H]1CCCN2CCCC[C@H]12` [Compound 116, 4-(((1S,9aR)-octahydro-1H-quinolizin-1-yl)methylamino)-2-(4-cyclopropyl-2-fluoro-5-(1H-tetrazol-1-yl)phenylamino)pyrimidine-5-carbonitrile]: less than 30 µM and 0.0074 µM.
Regarding `Cn1nnn(-c2cc(Nc3ncc(F)c(NC[C@@H]4CCCN5CCCC[C@H]45)n3)c(F)cc2O)c1=O` [Compound 147, 1-(5-((5-fluoro-4-((((1S,9aR)-octahydro-2H-quinolizin-1-yl)methyl)amino)pyrimidin-2-yl)amino)-4-fluoro-2-hydroxyphenyl)-4-methyl-1,4-dihydro-5H-tetrazol-5-one], the IC50 is less than 30 µM under setting [1] and 5.06 µM under setting [2].
As to `COc1cc(Nc2ncc(F)c(NC[C@@H]3CCCN4CCCC[C@H]34)n2)cc(-n2nnn(C)c2=O)c1` [Compound 17, 1-(3-(4-(((1S,9aR)-octahydro-1H-quinolizin-1-yl)methylamino)-5-fluoropyrimidin-2-ylamino)-5-methoxyphenyl)-4-methyl-1H-tetrazol-5(4H)-one], the IC50 by setting is: under setting [1], less than 30 µM; under setting [2], 0.405 µM.
For `Cc1ccc(Nc2ncc(C(F)(F)F)c(NC[C@@H]3CCCN4CCCC[C@H]34)n2)cc1-n1cnnn1` [Compound 101, 5-(trifluoromethyl)-N4-(((1S,9aR)-octahydro-1H-quinolizin-1-yl)methyl)-N2-(4-methyl-3-(1H-tetrazol-1-yl)phenyl)pyrimidine-2,4-diamine] the same measures were less than 30 µM and 10.7 µM.
For `Cc1ccc(Nc2nccc(NC[C@@H]3CCCN4CCCC[C@H]34)n2)cc1C#N` [Compound 54, 5-(4-(((1S,9aR)-octahydro-1H-quinolizin-1-yl)methylamino)pyrimidin-2-ylamino)-2-methylbenzonitrile] the same measures were less than 30 µM and 1.1 µM.
